# Laboratory results as given in PubChem BioAssay AID1963851 (Molecular Pharmacology Branch, DTP, NCI, 2024).
# System: 188146-221-R-J1-PDC complex spheroid viability
# Assay: Anticancer human tumor 188146-221-R-J1-PDC patient-derived colon adenocarcinoma cell line growth inhibition [POLQ]
# Settings: for IC50: curve of first compound; for viability, T/C: stronger effect = lower value
# Procedure, shortened: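 Growth inhibition in 3D: complex spheroids (tumor PDC, HUVEC, MSC) treated with POLQ inhibitor combinations; where Cmax unknown, highest tested concentration 10 microM, except SN-38 at 1 microM.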
# [1] = second compound 0.0316 µM, first compound 0.0316 µM
# [2] = second compound 0.0316 µM, first compound 0.1 µM
# [3] = second compound 0.0316 µM, first compound 0.316 µM
# [4] = second compound 0.0316 µM, first compound 1 µM
# [5] = second compound 0.0316 µM, first compound 3.16 µM
# [6] = second compound 0.0316 µM, first compound 10 µM
# [7] = second compound 0.1 µM, first compound 0.0316 µM
# [8] = second compound 0.1 µM, first compound 0.1 µM
# [9] = second compound 0.1 µM, first compound 0.316 µM
# [10] = second compound 0.1 µM, first compound 1 µM
# [11] = second compound 0.1 µM, first compound 3.16 µM
# [12] = second compound 0.1 µM, first compound 10 µM
# [13] = second compound 0.316 µM, first compound 0.0316 µM
# [14] = second compound 0.316 µM, first compound 0.1 µM
# [15] = second compound 0.316 µM, first compound 0.316 µM
# [16] = second compound 0.316 µM, first compound 1 µM
# [17] = second compound 0.316 µM, first compound 3.16 µM
# [18] = second compound 0.316 µM, first compound 10 µM
# [19] = second compound 1 µM, first compound 0.0316 µM
# [20] = second compound 1 µM, first compound 0.1 µM
# [21] = second compound 1 µM, first compound 0.316 µM
# [22] = second compound 1 µM, first compound 1 µM
# [23] = second compound 1 µM, first compound 3.16 µM
# [24] = second compound 1 µM, first compound 10 µM
# [25] = second compound 3.16 µM, first compound 0.0316 µM
# [26] = second compound 3.16 µM, first compound 0.1 µM
# [27] = second compound 3.16 µM, first compound 0.316 µM
# [28] = second compound 3.16 µM, first compound 1 µM
# [29] = second compound 3.16 µM, first compound 3.16 µM
# [30] = second compound 3.16 µM, first compound 10 µM
# [31] = second compound 10 µM, first compound 0.0316 µM
# [32] = second compound 10 µM, first compound 0.1 µM
# [33] = second compound 10 µM, first compound 0.316 µM
# [34] = second compound 10 µM, first compound 1 µM
# [35] = second compound 10 µM, first compound 3.16 µM
# [36] = second compound 10 µM, first compound 10 µM
# 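Note: spheroids exposed to compounds for seven days.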
# 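Throughout, for viability, T/C: 100% = DMSO vehicle control viability.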
smiles,measurement,setting,value
CC(=O)O[C@H]1C(=O)[C@@]2(C)[C@H]([C@H](OC(=O)c3ccccc3)[C@]3(O)C[C@H](OC(=O)[C@H](O)[C@@H](NC(=O)c4ccccc4)c4ccccc4)C(C)=C1C3(C)C)[C@]1(OC(C)=O)CO[C@@H]1C[C@@H]2O + Cc1cccc(N(C)C(=O)C2C(O)CCN2c2nc(C)cc(C(F)(F)F)c2C#N)c1,IC50,second compound 0.0316 µM,0.0148 µM
same,IC50,second compound 0.1 µM,0.0134 µM
same,IC50,second compound 0.316 µM,0.0113 µM
same,IC50,second compound 1 µM,0.0135 µM
same,IC50,second compound 3.16 µM,0.00998 µM
same,IC50,second compound 10 µM,0.00995 µM
same,"viability, T/C","second compound 0.0316 µM, first compound 0.00949 µM",69%
same,"viability, T/C","second compound 0.0316 µM, first compound 0.03 µM",20.6%
same,"viability, T/C","second compound 0.0316 µM, first compound 0.0949 µM",11.7%
same,"viability, T/C","second compound 0.0316 µM, first compound 0.3 µM",12.8%
same,"viability, T/C","second compound 0.0316 µM, first compound 0.949 µM",13.3%
same,"viability, T/C","second compound 0.0316 µM, first compound 3 µM",13.3%
same,"viability, T/C","second compound 0.1 µM, first compound 0.00949 µM",61.8%
same,"viability, T/C","second compound 0.1 µM, first compound 0.03 µM",23.3%
same,"viability, T/C","second compound 0.1 µM, first compound 0.0949 µM",12%
same,"viability, T/C","second compound 0.1 µM, first compound 0.3 µM",11.6%
same,"viability, T/C","second compound 0.1 µM, first compound 0.949 µM",12.8%
same,"viability, T/C","second compound 0.1 µM, first compound 3 µM",12.5%
same,"viability, T/C","second compound 0.316 µM, first compound 0.00949 µM",55%
same,"viability, T/C","second compound 0.316 µM, first compound 0.03 µM",22.4%
same,"viability, T/C","second compound 0.316 µM, first compound 0.0949 µM",13.6%
same,"viability, T/C","second compound 0.316 µM, first compound 0.3 µM",12.6%
same,"viability, T/C","second compound 0.316 µM, first compound 0.949 µM",13.3%
same,"viability, T/C","second compound 0.316 µM, first compound 3 µM",11.6%
same,"viability, T/C","second compound 1 µM, first compound 0.00949 µM",63.3%
same,"viability, T/C","second compound 1 µM, first compound 0.03 µM",19.4%
same,"viability, T/C","second compound 1 µM, first compound 0.0949 µM",13.4%
same,"viability, T/C","second compound 1 µM, first compound 0.3 µM",11%
same,"viability, T/C","second compound 1 µM, first compound 0.949 µM",13%
same,"viability, T/C","second compound 1 µM, first compound 3 µM",13.8%
same,"viability, T/C","second compound 3.16 µM, first compound 0.00949 µM",51.5%
same,"viability, T/C","second compound 3.16 µM, first compound 0.03 µM",17.5%
same,"viability, T/C","second compound 3.16 µM, first compound 0.0949 µM",14.1%
same,"viability, T/C","second compound 3.16 µM, first compound 0.3 µM",12.1%
same,"viability, T/C","second compound 3.16 µM, first compound 0.949 µM",13.2%
same,"viability, T/C","second compound 3.16 µM, first compound 3 µM",16.4%
same,"viability, T/C","second compound 10 µM, first compound 0.00949 µM",51.4%
same,"viability, T/C","second compound 10 µM, first compound 0.03 µM",17.4%
same,"viability, T/C","second compound 10 µM, first compound 0.0949 µM",14.1%
same,"viability, T/C","second compound 10 µM, first compound 0.3 µM",14.8%
same,"viability, T/C","second compound 10 µM, first compound 0.949 µM",14.6%
same,"viability, T/C","second compound 10 µM, first compound 3 µM",14.5%
CNCc1ccc(-c2[nH]c3cc(F)cc4c3c2CCNC4=O)cc1 + COC1C(OC(N)=O)C(O)C(Oc2ccc3c(O)c(NC(=O)c4ccc(O)c(CC=C(C)C)c4)c(=O)oc3c2C)OC1(C)C,IC50,second compound 0.0316 µM,> 10 µM
same,IC50,second compound 0.1 µM,> 10 µM
same,IC50,second compound 0.316 µM,> 10 µM
same,IC50,second compound 1 µM,> 10 µM
same,IC50,second compound 3.16 µM,> 10 µM
same,IC50,second compound 10 µM,> 10 µM
same,"viability, T/C",[1],111%
same,"viability, T/C",[2],98.3%
same,"viability, T/C",[3],109%
same,"viability, T/C",[4],102%
same,"viability, T/C",[5],103%
same,"viability, T/C",[6],96.5%
same,"viability, T/C",[7],118%
same,"viability, T/C",[8],104%
same,"viability, T/C",[9],106%
same,"viability, T/C",[10],99.6%
same,"viability, T/C",[11],102%
same,"viability, T/C",[12],117%
same,"viability, T/C",[13],106%
same,"viability, T/C",[14],101%
same,"viability, T/C",[15],102%
same,"viability, T/C",[16],111%
same,"viability, T/C",[17],112%
same,"viability, T/C",[18],104%
same,"viability, T/C",[19],108%
same,"viability, T/C",[20],110%
same,"viability, T/C",[21],106%
same,"viability, T/C",[22],105%
same,"viability, T/C",[23],99.5%
same,"viability, T/C",[24],115%
same,"viability, T/C",[25],98.1%
same,"viability, T/C",[26],99.8%
same,"viability, T/C",[27],106%
same,"viability, T/C",[28],101%
same,"viability, T/C",[29],111%
same,"viability, T/C",[30],107%
same,"viability, T/C",[31],111%
same,"viability, T/C",[32],103%
same,"viability, T/C",[33],110%
same,"viability, T/C",[34],93.2%
same,"viability, T/C",[35],117%
same,"viability, T/C",[36],121%
CC(C)n1c(=O)n(C)c2cnc3cc(F)c(-c4ccc(OCCCN5CCCCC5)nc4)cc3c21 + COC1C(OC(N)=O)C(O)C(Oc2ccc3c(O)c(NC(=O)c4ccc(O)c(CC=C(C)C)c4)c(=O)oc3c2C)OC1(C)C,IC50,second compound 0.0316 µM,> 10 µM
same,IC50,second compound 0.1 µM,> 10 µM
same,IC50,second compound 0.316 µM,> 10 µM
same,IC50,second compound 1 µM,> 10 µM
same,IC50,second compound 3.16 µM,> 10 µM
same,IC50,second compound 10 µM,> 10 µM
same,"viability, T/C",[1],103%
same,"viability, T/C",[2],105%
same,"viability, T/C",[3],101%
same,"viability, T/C",[4],97.6%
same,"viability, T/C",[5],94.6%
same,"viability, T/C",[6],82.9%
same,"viability, T/C",[7],103%
same,"viability, T/C",[8],95.8%
same,"viability, T/C",[9],106%
same,"viability, T/C",[10],98%
same,"viability, T/C",[11],93.3%
same,"viability, T/C",[12],82%
same,"viability, T/C",[13],99.6%
same,"viability, T/C",[14],104%
same,"viability, T/C",[15],94.7%
same,"viability, T/C",[16],89.8%
same,"viability, T/C",[17],81.3%
same,"viability, T/C",[18],96.2%
same,"viability, T/C",[19],96.8%
same,"viability, T/C",[20],101%
same,"viability, T/C",[21],103%
same,"viability, T/C",[22],102%
same,"viability, T/C",[23],102%
same,"viability, T/C",[24],86.8%
same,"viability, T/C",[25],98.8%
same,"viability, T/C",[26],101%
same,"viability, T/C",[27],93.4%
same,"viability, T/C",[28],96.1%
same,"viability, T/C",[29],108%
same,"viability, T/C",[30],88.7%
same,"viability, T/C",[31],107%
same,"viability, T/C",[32],101%
same,"viability, T/C",[33],109%
same,"viability, T/C",[34],93.7%
same,"viability, T/C",[35],113%
same,"viability, T/C",[36],90.9%
